Results published in patent US10238631B2, “Sesquiterpene derivatives and their use in inflammation or cancer treatment” (Academia Sinica, priority 2014, dated 2019).

system: TS/A (ER+, Her2−) murine mammary cancer cells; assay: MTT cell viability assay, TS/A cells; assay type: cell-based; details: Mus musculus, 24 h, read-out: IC50 on cell viability, TS/A (ER+, Her2−)
In short: (§1)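 Cells were seeded at 2×10^3 to 1×10^4 per well overnight, then exposed to compounds for 24 h to 72 h. Viability was read by MTT at OD570 as a percentage of the 0.5% DMSO vehicle control.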

Structure (SMILES)	IC50
C=C1C(=O)OC2CC3=C[C@@H](C/C(C)=C/C(OC(=O)[C@H](C)c4ccc5cc(OC)ccc5c4)[C@H]12)OC3=O (some centres unmarked) [DETD-54]	3.1 µM
C=C1C(=O)OC2CC3=C[C@@H](C/C(C)=C/[C@@H](OC(=O)/C=C/c4ccc5c(c4)OCO5)[C@H]12)OC3=O (some centres unmarked) [DETD-61]	2.5 µM

system: MDA-MB-231 (ER−, PR−, Her2−) human breast cancer cells; assay: MTT cell viability assay, MDA-MB-231 cells; assay type: cell-based; details: Homo sapiens, MDA-MB-231, 24 h, read-out: IC50 on cell viability, MDA-MB-231 (ER−, PR−, Her2−)
In short: as §1

Structure (SMILES)	IC50
C=C1C(=O)OC2CC3=C[C@@H](C/C(C)=C/C(OC(=O)[C@H](C)c4ccc5cc(OC)ccc5c4)[C@H]12)OC3=O (some centres unmarked) [DETD-54]	4.9 µM
C=C1C(=O)OC2CC3=C[C@@H](C/C(C)=C/[C@@H](OC(=O)/C=C/c4ccc5c(c4)OCO5)[C@H]12)OC3=O (some centres unmarked) [DETD-61]	3.4 µM

system: MCF-7 (ER+, Her2−) human breast cancer cells; assay: MTT cell viability assay, MCF-7 cells; assay type: cell-based; details: MCF7, 24 h, read-out: IC50 on cell viability, MCF-7 (ER+, Her2−)
In short: as §1

Structure (SMILES)	IC50
C=C1C(=O)OC2CC3=C[C@@H](C/C(C)=C/C(OC(=O)[C@H](C)c4ccc5cc(OC)ccc5c4)[C@H]12)OC3=O (some centres unmarked) [DETD-54]	> 7.5 µM
C=C1C(=O)OC2CC3=C[C@@H](C/C(C)=C/[C@@H](OC(=O)/C=C/c4ccc5c(c4)OCO5)[C@H]12)OC3=O (some centres unmarked) [DETD-61]	3.6 µM

system: M10 normal mammary epithelial cells; assay: MTT cell viability assay, M10 normal cells; assay type: cell-based, human; details: Homo sapiens, Epithelial cell, 24 h
In short: as §1

Structure (SMILES)	IC50
C=C1C(=O)OC2CC3=C[C@@H](C/C(C)=C/C(OC(=O)[C@H](C)c4ccc5cc(OC)ccc5c4)[C@H]12)OC3=O (some centres unmarked) [DETD-54]	> 7.5 µM
C=C1C(=O)OC2CC3=C[C@@H](C/C(C)=C/[C@@H](OC(=O)/C=C/c4ccc5c(c4)OCO5)[C@H]12)OC3=O (some centres unmarked) [DETD-61]	4.7 µM

system: B16-F10 (NRAS mutation); assay: MTT cell viability assay, B16-F10 melanoma; assay type: cell-based; details: Mus musculus, B16-F10, 24 h, 24 h, read-out: IC50 on cell viability, B16-F10 (NRAS mutation)
In short: (§2)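 Cells (2×10^3 to 1×10^4/well) seeded overnight, then exposed to compounds for 24 h to 72 h. Growth read by MTT colorimetry at OD570. Viability expressed as % of vehicle (0.5% DMSO) control.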

Structure (SMILES)	IC50
C=C1C(=O)OC2CC3=C[C@@H](C/C(C)=C/C(OC(=O)[C@H](C)c4ccc5cc(OC)ccc5c4)[C@H]12)OC3=O (some centres unmarked) [DETD-54]	6.6 µM
C=C1C(=O)OC2CC3=C[C@@H](C/C(C)=C/[C@@H](OC(=O)/C=C/c4ccc5c(c4)OCO5)[C@H]12)OC3=O (some centres unmarked) [DETD-61]	6 µM

system: MeWo (No NRAS or BRAF mutation); assay: MTT cell viability assay, MeWo melanoma; assay type: cell-based, human; details: Homo sapiens, MeWo, 24 h
In short: as §2

Structure (SMILES)	IC50
C=C1C(=O)OC2CC3=C[C@@H](C/C(C)=C/C(OC(=O)[C@H](C)c4ccc5cc(OC)ccc5c4)[C@H]12)OC3=O (some centres unmarked) [DETD-54]	7.9 µM
C=C1C(=O)OC2CC3=C[C@@H](C/C(C)=C/[C@@H](OC(=O)/C=C/c4ccc5c(c4)OCO5)[C@H]12)OC3=O (some centres unmarked) [DETD-61]	6.6 µM

system: HTB-68 (NRAS mutation); assay: MTT cell viability assay, HTB-68 melanoma; assay type: cell-based, human; details: Homo sapiens, 24 h
In short: as §2

Structure (SMILES)	IC50
C=C1C(=O)OC2CC3=C[C@@H](C/C(C)=C/C(OC(=O)[C@H](C)c4ccc5cc(OC)ccc5c4)[C@H]12)OC3=O (some centres unmarked) [DETD-54]	7 µM
C=C1C(=O)OC2CC3=C[C@@H](C/C(C)=C/[C@@H](OC(=O)/C=C/c4ccc5c(c4)OCO5)[C@H]12)OC3=O (some centres unmarked) [DETD-61]	5.5 µM

system: A2058 (BRAF mutation); assay: MTT cell viability assay, A2058 melanoma; assay type: cell-based, human; details: Homo sapiens, A2058, 24 h
In short: as §2

Structure (SMILES)	IC50
C=C1C(=O)OC2CC3=C[C@@H](C/C(C)=C/C(OC(=O)[C@H](C)c4ccc5cc(OC)ccc5c4)[C@H]12)OC3=O (some centres unmarked) [DETD-54]	6.6 µM
C=C1C(=O)OC2CC3=C[C@@H](C/C(C)=C/[C@@H](OC(=O)/C=C/c4ccc5c(c4)OCO5)[C@H]12)OC3=O (some centres unmarked) [DETD-61]	5.2 µM

system: A375 (BRAF mutation); assay: MTT cell viability assay, A375 melanoma; assay type: cell-based, human; details: Homo sapiens, A-375, 24 h, 24 h, MTT; read-out: IC50 on cell viability, A375 (BRAF mutation)
In short: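 A375 cells were seeded at 2×10^3 to 1×10^4 per well overnight and then exposed to compounds for 24 h to 72 h. Viability was measured by MTT absorbance at OD570 relative to 0.5% DMSO vehicle (100%), and IC50 was derived from it. Combination with PLX4032 was scored by combination index.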

Structure (SMILES)	IC50
C=C1C(=O)OC2CC3=C[C@@H](C/C(C)=C/C(OC(=O)[C@H](C)c4ccc5cc(OC)ccc5c4)[C@H]12)OC3=O (some centres unmarked) [DETD-54]	3.4 µM
C=C1C(=O)OC2CC3=C[C@@H](C/C(C)=C/[C@@H](OC(=O)/C=C/c4ccc5c(c4)OCO5)[C@H]12)OC3=O (some centres unmarked) [DETD-61]	2.6 µM

system: Melanocyte (Normal cells); assay: MTT cell viability assay, normal melanocytes; assay type: cell-based, human; details: Homo sapiens, Melanocyte, 24 h
In short: as §2

Structure (SMILES)	IC50
C=C1C(=O)OC2CC3=C[C@@H](C/C(C)=C/C(OC(=O)[C@H](C)c4ccc5cc(OC)ccc5c4)[C@H]12)OC3=O (some centres unmarked) [DETD-54]	> 10 µM
C=C1C(=O)OC2CC3=C[C@@H](C/C(C)=C/[C@@H](OC(=O)/C=C/c4ccc5c(c4)OCO5)[C@H]12)OC3=O (some centres unmarked) [DETD-61]	> 10 µM

system: RAW264.7 (normal macrophage); assay: MTT cell viability assay, RAW264.7 macrophages; assay type: cell-based, mouse; details: Mus musculus, RAW264.7, 24 h
In short: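 RAW264.7 macrophages (2×10^5 cells/well) pretreated with compounds 1 h, then incubated 24 h with or without 100 ng/μL LPS. Viability by MTT colorimetric assay run in parallel with Griess nitrite measurement.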

Structure (SMILES)	IC50
C=C1C(=O)OC2CC3=C[C@@H](C/C(C)=C/C(OC(=O)[C@H](C)c4ccc5cc(OC)ccc5c4)[C@H]12)OC3=O (some centres unmarked) [DETD-54]	> 10 µM
C=C1C(=O)OC2CC3=C[C@@H](C/C(C)=C/[C@@H](OC(=O)/C=C/c4ccc5c(c4)OCO5)[C@H]12)OC3=O (some centres unmarked) [DETD-61]	> 10 µM

system: LPS-induced nitric oxide (NO) production in RAW 264.7 cells; assay: Nitric oxide production in LPS-stimulated macrophages (Griess); assay type: cell-based, mouse; details: Mus musculus; LPS-stimulated RAW264.7, nitrite 24 h after LPS
In short: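 RAW 264.7 macrophages (2×10^5 cells/well) were pretreated with compound for 1 h and then stimulated with 100 ng/μL LPS for 24 h. NO was measured as nitrite in the medium by the Griess reaction. Viability was checked in parallel by MTT.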

Structure (SMILES)	IC50
C=C1C(=O)OC2CC3=C[C@@H](C/C(C)=C/C(OC(=O)[C@H](C)c4ccc5cc(OC)ccc5c4)[C@H]12)OC3=O (some centres unmarked) [DETD-54]	> 10 µM
C=C1C(=O)OC2CC3=C[C@@H](C/C(C)=C/[C@@H](OC(=O)/C=C/c4ccc5c(c4)OCO5)[C@H]12)OC3=O (some centres unmarked) [DETD-61]	3.1 µM

system: melanoma cell lines B16-F10, MeWo, A375, A2058, HTB-68; assay: MTT cell viability assay, all melanoma cell lines; assay type: cell-based; details: 24 h, read-out: IC50 values over all types of melanoma cell lines
Description: Normal or cancer cells (2×10^3 to 1×10^4 cells/well) were seeded in 96-well plate for overnight and treated with different compounds for 24 h to 72 h. Cells growth were determined by MTT-based colorimetric assays according to. Viability of the test cells treated with vehicle (0.5% DMSO) only was defined as 100% viable. Survival of cells after treatment with DETDs was calculated using the following formula: viable cell number (%)=OD570 (treated cell culture)/OD570 (vehicle control)×100.
Several genes are involved in melanoma development and pathology; specifically, mutation in V-raf murine sarcoma viral oncogene homolog B1 (B-RAF) occurs approximately 50-60% and in neuroblastoma RAS viral oncogene homolog (N-RAS) occurs about 30% of malignant melanomas. A spectrum of wild-type or mutated melanoma cell lines including B16-F10, MeWo, A375, A2058, HTB-68, and melanocyte were used to study anti-melanoma cell proliferation activity of parental phytocompound DET and newly synthesized DETDs.

Structure (SMILES)	IC50
C=C1C(=O)OC2CC3=C[C@@H](C/C(C)=C/C(OC(=O)[C@H](C)c4ccc5cc(OC)ccc5c4)[C@H]12)OC3=O (some centres unmarked) [DETD-54]	1.6 to 9.9 µM
C=C1C(=O)OC2CC3=C[C@@H](C/C(C)=C/[C@@H](OC(=O)/C=C/c4ccc5c(c4)OCO5)[C@H]12)OC3=O (some centres unmarked) [DETD-61]	1.6 to 9.9 µM
